Data published in patent publication US7585939B2, “Chromatin peptides blocking human HIF-1α gene and modulating the downstream related genes” (Geneblue Corporation, priority 2005, dated 2009).
Where no end group is shown, it is not given here.

Key:
small cell lung cancer = assay: Treatment of patient with small cell lung cancer with micrometastasis to liver; type: in vivo, human patient; conditions: 5 mg i.v. every 10 days
Method: Patient with small cell lung cancer, at middle and advanced stage, had micrometastasis to liver. […] Administer intravenous injection every 10 days, with 5 mg each time. 15 days later, dyspnoea and referred pain all vanished.

Breast cancer = assay: Treatment of breast cancer in dogs; type: in vivo; conditions: 0.5 mg injected directly to the tumor every 15 days; 20th day
Method: Breast cancer were found in dogs, with tumor size of 45 mm×50 mm. NH2-Lys Arg Ala Ser Arg Asn Lys Ser Glu Lys Lys Arg Arg-COOH (SEQ ID NO: 20) was directly injected to the tumor, with 0.5 mg each time, and administration was given every 15 days.

[1] = test system: human breast cancer cell line 0404 MDA-MB-435; assay: MDA-MB-435 human breast cancer animal model in BALB/c-nu nude mice; type: in vivo, BALB/c-nu female nude mice
Method: The experiment animals with tumor size of 100-200 MM^3 were randomized into four groups, at the 14th day after inoculation of cancer cells. There were 16 mice in each group, treated with different doses of low (0.5 mg/kg), medium (2 mg/kg), and high (5 mg/kg). The control group was treated with normal saline. Administer injection to the tumor surroundings every day after inoculation. The growth tumor volume was measured every 3 days. All experiment mice were killed at the 21st day; tumor growth rate was measured by volume and weight.

[2] = test system: lung cancer existing carcinomatous metastasis to marrow; assay: Treatment of patient with lung cancer with metastasis to marrow; type: in vivo, human patient; conditions: 2 mg i.v. every 5 days
Method: Patient with lung cancer existing carcinomatous metastasis to marrow conducted radiotherapy. […] Intravenous injections were given every 5 days, with a dose of 2 mg each time, and one month as a course of treatment. In addition, antibiotics were accompanied to control complicated infection.

[3] = test system: highly metastatic tumor HCT of human colon carcinoma cell line
Method: The highly metastatic tumor HCT of human colon carcinoma cell line was inoculated into the forelimb armpit of BALB/c-nu, a kind of female nude mouse, with amount of 5 million tumor cells/per mouse. Five days later, the area of tumor cells implanted was directly treated by injection with the above-mentioned 14 mer peptide solution, by a dose of 5 mg/kg daily. The drug treatment group and control (saline) group were set up, with 25 mice in each side. The experiment mice were killed after 21 days, measuring the tumor weight. After weighing the tumor taken from each mouse, keep it in 4% formaldehyde. Paraffin section shed paraffin for 10 minutes through xylene, then deal with alcohol, stain in hematoxylin, and then stains with 0.5% eosine ethanol. After that, mount with neutral gum. Analyze under microscope and take films.

[4] = with radiotherapy and antibiotics

Substance: NH2-Arg Lys Glu Lys Ser Arg Asp Ala Ala Arg Cys Arg Arg-COOH (H-RKEKSRDAARCRR-OH) [13mer peptide]
- microscopic repeated test of sputum (small cell lung cancer; 90th day): no malignant cells falling off
- biopsy (small cell lung cancer; 100th day): no malignant cells
- dyspnoea and referred pain (small cell lung cancer; 15 days later): all vanished

Substance: NH2-Lys Arg Ala Ser Arg Asn Lys Ser Glu Lys Lys Arg Arg-COOH (H-KRASRNKSEKKRR-OH) [SEQ ID NO: 20]
- tumor (size 45 mm×50 mm) (Breast cancer): Tumor disappeared

Substance: NH2-Arg Lys Glu Lys Ser Arg Asp Ala Ala Arg-COOH (H-RKEKSRDAAR-OH) [10 mer peptide]
- breast cancer growth in the animal model ([1]; conclusion from Table 4): inhibit breast cancer growth
- The volume of tumor sizes on average ([1]; high dose 5 mg/kg daily, 3rd day): 1.408 CM^3
- The volume of tumor sizes on average ([1]; high dose 5 mg/kg daily, 7th day): 1.461 CM^3
- The volume of tumor sizes on average ([1]; high dose 5 mg/kg daily, 10th day): 1.253 CM^3
- The volume of tumor sizes on average ([1]; high dose 5 mg/kg daily, 14th day): 2.211 CM^3
- The volume of tumor sizes on average ([1]; high dose 5 mg/kg daily, 17th day): 2.3635 CM^3
- The volume of tumor sizes on average ([1]; high dose 5 mg/kg daily, 21st day): 1.793 CM^3
- The volume of tumor sizes on average ([1]; low dose 0.5 mg/kg daily, 3rd day): 1.475 CM^3
- The volume of tumor sizes on average ([1]; low dose 0.5 mg/kg daily, 7th day): 3.313 CM^3
- The volume of tumor sizes on average ([1]; low dose 0.5 mg/kg daily, 10th day): 4.97 CM^3
- The volume of tumor sizes on average ([1]; low dose 0.5 mg/kg daily, 14th day): 7.668 CM^3
- The volume of tumor sizes on average ([1]; low dose 0.5 mg/kg daily, 17th day): 8.482 CM^3
- The volume of tumor sizes on average ([1]; low dose 0.5 mg/kg daily, 21st day): 8.953 CM^3
- The volume of tumor sizes on average ([1]; medium dose 2 mg/kg daily, 3rd day): 1.295 CM^3
- The volume of tumor sizes on average ([1]; medium dose 2 mg/kg daily, 7th day): 2.133 CM^3
- The volume of tumor sizes on average ([1]; medium dose 2 mg/kg daily, 10th day): 2.721 CM^3
- The volume of tumor sizes on average ([1]; medium dose 2 mg/kg daily, 14th day): 4.879 CM^3
- The volume of tumor sizes on average ([1]; medium dose 2 mg/kg daily, 17th day): 6.274 CM^3
- The volume of tumor sizes on average ([1]; medium dose 2 mg/kg daily, 21st day): 6.119 CM^3

Substance: RRKEKSRDAARSRR [14 mer peptide]
- cancer status ([2]; one month as a course): cancer free three months later
- Skeleton ache symptom [2, 4]: decreased after five days
- osteodynia [2, 4]: disappeared 20 days later
- experiment mice in the treatment group with tumors totally disappeared ([3]; 5 mg/kg daily injected at tumor area from day 5, killed after 21 days, 25 mice per group): four
- pathological section of tumor ([3]; 5 mg/kg daily, treatment group vs saline control, FIG. 1(A)/1(B)): a lot of apoptotic bodies and cell debris were found in the central part of the tumor
